Test results taken from patent US10155727B2, “Pyrazoles” (Janssen Pharmaceuticals, Inc., priority 2014, dated 2018).
Where a name gives a salt, the structure may show the parent alone. Read-outs that look alike come from different tables or passages of the source.

Experiments:
[1] = molecular target: human NR1/NR2B ion channels (Homo sapiens (Human), UniProt Q05586+Q13224); assay: HNR2BC: calcium influx assay on cloned human NR1/NR2B ion channels expressed in HEK cells; assay type: cell-based; settings: HEK cells with hNR1/NR2B, 100 μM glutamate + 100 μM glycine, 3 parameter plot
Sequence of human NR1/NR2B ion channels (Q13224 27-1484, other chains not shown): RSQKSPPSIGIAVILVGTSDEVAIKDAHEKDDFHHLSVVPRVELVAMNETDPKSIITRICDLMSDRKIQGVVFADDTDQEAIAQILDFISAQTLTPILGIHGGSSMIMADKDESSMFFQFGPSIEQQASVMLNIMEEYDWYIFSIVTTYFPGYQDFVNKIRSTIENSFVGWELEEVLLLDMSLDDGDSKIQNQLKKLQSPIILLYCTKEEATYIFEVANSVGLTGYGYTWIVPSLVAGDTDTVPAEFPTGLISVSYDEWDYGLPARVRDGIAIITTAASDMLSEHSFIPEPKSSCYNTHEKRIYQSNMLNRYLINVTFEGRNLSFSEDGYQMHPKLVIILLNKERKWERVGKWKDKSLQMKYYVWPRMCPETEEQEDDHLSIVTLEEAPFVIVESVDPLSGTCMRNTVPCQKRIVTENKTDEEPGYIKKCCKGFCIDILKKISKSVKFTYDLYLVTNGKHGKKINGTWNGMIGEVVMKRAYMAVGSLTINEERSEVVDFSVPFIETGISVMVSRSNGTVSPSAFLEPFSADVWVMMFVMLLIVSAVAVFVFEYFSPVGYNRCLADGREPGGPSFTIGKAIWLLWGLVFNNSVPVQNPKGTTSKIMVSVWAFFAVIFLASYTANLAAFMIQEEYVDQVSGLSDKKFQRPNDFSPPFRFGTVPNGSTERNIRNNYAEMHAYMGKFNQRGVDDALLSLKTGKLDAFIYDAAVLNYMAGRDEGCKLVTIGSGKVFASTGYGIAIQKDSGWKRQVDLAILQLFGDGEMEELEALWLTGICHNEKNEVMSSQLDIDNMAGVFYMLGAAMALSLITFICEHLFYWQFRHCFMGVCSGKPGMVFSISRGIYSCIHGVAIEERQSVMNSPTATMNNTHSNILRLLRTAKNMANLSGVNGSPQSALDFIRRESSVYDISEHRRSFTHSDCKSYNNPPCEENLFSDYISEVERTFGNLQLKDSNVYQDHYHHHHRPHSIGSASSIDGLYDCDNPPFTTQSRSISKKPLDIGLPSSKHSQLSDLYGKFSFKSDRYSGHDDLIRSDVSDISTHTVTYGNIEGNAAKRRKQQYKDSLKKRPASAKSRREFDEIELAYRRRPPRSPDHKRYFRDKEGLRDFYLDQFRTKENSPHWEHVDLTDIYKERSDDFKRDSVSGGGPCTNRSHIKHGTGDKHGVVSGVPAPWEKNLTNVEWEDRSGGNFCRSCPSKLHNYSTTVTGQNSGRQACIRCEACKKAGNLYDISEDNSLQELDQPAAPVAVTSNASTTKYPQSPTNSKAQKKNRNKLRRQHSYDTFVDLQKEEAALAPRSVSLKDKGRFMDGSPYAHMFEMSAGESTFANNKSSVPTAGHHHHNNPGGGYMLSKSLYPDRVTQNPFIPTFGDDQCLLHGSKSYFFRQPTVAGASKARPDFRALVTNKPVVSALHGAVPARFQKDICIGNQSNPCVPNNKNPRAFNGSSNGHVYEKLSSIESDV
Experimental: HNR2BC: Effects of Test Articles on Cloned Human NR1/NR2B Ion Channels Expressed in Mammalian Cells
The ability of test compounds to act as an antagonist of NR1/NR2B was evaluated with a calcium influx assay (Calcium 5 Assay Kit, Molecular Devices).
For the antagonist assessment, NR1/NR2B was activated with the positive control agonist (Mg^2+-free HBPS+100 μM glutamic acid+100 μM glycine).
A HEK cell line, stable transfected with hNR1/NR2B was used. This tetracycline inducible cell line is transfected with GRIN1 (GeneBank accession number NM_007327.2) and GRIN2B (GeneBank accession number NM_000834.3.). The cells were cultured in cell culture flasks with DMEM/F12 supplemented with 10% FCS, 1% PenStrep and a selection of additional antibiotics.
Forty-Eight (48) hours before the assay the cells were plated into 96-well black well, flat clear bottom microtiter plates at a density of 50000 cells/well. Twenty-Four (24) hours later the receptor expression was induced by the addition of 1 μg/ml tetracycline in the presence of 2 mM ketamine and 200 μM 7-CKA. After 24 h of receptor induction the plates were used for the assay.
The medium was removed and the cells were loaded with 200 μl loading buffer (Molecular Devices) in Mg2+-free HBPS containing 100 μM 7-CKA at 37° C. for one (1) hour.
The test compounds were then solubilized in 100% DMSO and diluted to yield eight (8) different concentrations in 100% DMSO. A 96 well drug plate was prepared by diluting with water and glycine/glutamate to a 5-fold of final test concentration. Fluorescence intensity of the cells in the plate was measured in a FlexStation using an excitation wavelength of 485 nm and an emission wavelength of 525 nm. Twenty (20) seconds after starting the recordings the compounds together with the agonists glycine (100 μM) and glutamate (100 μM) were added into the wells and the fluorescence measured for ninety (90) seconds in summary.
The IC50 values provided in the paragraph below were determined using a 3 parameter plot.

hERG receptor = hERG receptor (Homo sapiens (Human), UniProt Q12809); assay: HERGBD: inhibition of specific [3H]-Dofetilide binding to the hERG receptor
Sequence of hERG receptor (Q12809 whole entry): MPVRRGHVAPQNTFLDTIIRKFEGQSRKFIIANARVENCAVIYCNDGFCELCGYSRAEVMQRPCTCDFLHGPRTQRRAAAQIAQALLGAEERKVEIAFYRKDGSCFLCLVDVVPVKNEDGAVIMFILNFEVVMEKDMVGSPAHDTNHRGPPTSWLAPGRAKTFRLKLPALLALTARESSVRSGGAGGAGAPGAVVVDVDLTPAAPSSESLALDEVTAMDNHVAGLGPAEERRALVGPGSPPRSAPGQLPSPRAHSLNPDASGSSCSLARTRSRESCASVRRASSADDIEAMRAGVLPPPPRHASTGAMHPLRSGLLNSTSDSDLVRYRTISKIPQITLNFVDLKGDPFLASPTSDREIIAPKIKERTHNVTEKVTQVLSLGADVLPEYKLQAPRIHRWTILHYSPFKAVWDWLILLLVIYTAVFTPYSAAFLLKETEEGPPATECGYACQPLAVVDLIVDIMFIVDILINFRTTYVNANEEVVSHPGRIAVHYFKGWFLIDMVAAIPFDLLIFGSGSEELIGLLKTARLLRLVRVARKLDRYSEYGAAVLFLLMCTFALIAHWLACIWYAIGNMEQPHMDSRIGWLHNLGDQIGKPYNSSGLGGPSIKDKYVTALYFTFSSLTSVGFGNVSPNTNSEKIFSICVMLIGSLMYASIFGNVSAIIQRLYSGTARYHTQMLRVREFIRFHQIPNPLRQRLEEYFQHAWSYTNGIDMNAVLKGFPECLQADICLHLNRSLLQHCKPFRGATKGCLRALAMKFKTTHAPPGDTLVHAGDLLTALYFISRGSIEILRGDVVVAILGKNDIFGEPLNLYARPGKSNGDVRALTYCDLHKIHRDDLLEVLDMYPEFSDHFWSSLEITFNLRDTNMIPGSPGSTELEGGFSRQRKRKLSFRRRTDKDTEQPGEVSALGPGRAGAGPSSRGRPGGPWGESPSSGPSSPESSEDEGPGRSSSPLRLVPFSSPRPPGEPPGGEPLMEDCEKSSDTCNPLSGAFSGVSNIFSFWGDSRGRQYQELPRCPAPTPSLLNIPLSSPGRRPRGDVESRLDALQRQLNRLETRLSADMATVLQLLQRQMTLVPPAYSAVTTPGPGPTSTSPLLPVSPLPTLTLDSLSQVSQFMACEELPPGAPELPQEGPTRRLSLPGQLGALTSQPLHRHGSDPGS
Experimental: Inhibition of Specific Binding to the hERG—Receptor (HERGBD)
A HEK cell line with stable transfected human ERG receptor was used for the assay. The cells were grown adherently and maintained in DULBECCOS' MEM medium with 10% FBS, 1% non-essential amino acids, 1% Penicillin/Streptomycin and 400 μg/ml G418 (Calbiochem).
For binding assays and membrane preparations the cell culture medium was removed, cells were washed with PBS. Crude membranes for radioligand binding experiments were prepared by scraping the cells off the dishes in ice cold 20 mM HEPES/0.1 mM KCl/pH 7.2. The cell suspension was homogenized on ice (Ultra turrax, 3×20 sec.) and the homogenate was spun for 10 min (1° C., 1000 g, OPTIMA, SW28, 2800 U/min). The supernatant was than centrifuged for 40 min at 100000 g (1° C., OPTIMA, SW28, 23000 U/min). The membrane pellet was re-suspended in 20 mM HEPES/0.1 mM KCl pH 7.2, frozen and stored at −80° C.
After thawing on the day of the assay, the membrane suspension was diluted further with 20 mM HEPES/0.1 mM KCl/pH 7.2.
The incubation mixture of 200 μl contained 1.5 nmol/l 3H-Dofetilide, optimized amount of membrane preparation, 20 mM HEPES/0.1 mM KCl/(pH 7.2) and inhibitor in 1% DMSO. Nonspecific binding was estimated in the presence of […] Dofetilide. The samples were incubated for 90 min. at RT.
Binding was terminated by filtration of the incubated membrane preparations using Filtermat B (Pharmacia, Uppsala Sweden) and a Micro Cell Harvester (Skatron, Lier, Norway). The Filtermat B had been presoaked with 1% polyethylen imine and carefully washed with 0.05 M Tris/HCl-buffer pH=7.7 after the filtration to separate free and bound radioactivity. The filters were counted in a scintillation counter (Betaplate 1205, Berthold, Wildbad, Germany) in order to determine the specific binding of [^3H]-Dofetilide.
The optimal amount of membrane preparation in the assay was determined and optimized for each membrane preparation separately in front of using the membranes in compound testing.
For pipetting of the incubation mixture we routinely use the robot Biomek2000 (Fa. Beckman).

rat NR1/NR2B receptor = rat NR1/NR2B receptor (Rattus norvegicus (Rat), UniProt P35439+Q00960); assay: NR2B binding assay: inhibition of specific [3H]-Ifenprodil binding to the rat NR1/NR2B receptor; settings: for IC50 / inhibition at 1 µM: [3H]-Ifenprodil binding, rat brain membranes; for inhibition at 1 µM: 1 μM test compound, read-out: % INH @ 1 μM
Sequence of rat NR1/NR2B receptor (Q00960 27-1482, other chains not shown): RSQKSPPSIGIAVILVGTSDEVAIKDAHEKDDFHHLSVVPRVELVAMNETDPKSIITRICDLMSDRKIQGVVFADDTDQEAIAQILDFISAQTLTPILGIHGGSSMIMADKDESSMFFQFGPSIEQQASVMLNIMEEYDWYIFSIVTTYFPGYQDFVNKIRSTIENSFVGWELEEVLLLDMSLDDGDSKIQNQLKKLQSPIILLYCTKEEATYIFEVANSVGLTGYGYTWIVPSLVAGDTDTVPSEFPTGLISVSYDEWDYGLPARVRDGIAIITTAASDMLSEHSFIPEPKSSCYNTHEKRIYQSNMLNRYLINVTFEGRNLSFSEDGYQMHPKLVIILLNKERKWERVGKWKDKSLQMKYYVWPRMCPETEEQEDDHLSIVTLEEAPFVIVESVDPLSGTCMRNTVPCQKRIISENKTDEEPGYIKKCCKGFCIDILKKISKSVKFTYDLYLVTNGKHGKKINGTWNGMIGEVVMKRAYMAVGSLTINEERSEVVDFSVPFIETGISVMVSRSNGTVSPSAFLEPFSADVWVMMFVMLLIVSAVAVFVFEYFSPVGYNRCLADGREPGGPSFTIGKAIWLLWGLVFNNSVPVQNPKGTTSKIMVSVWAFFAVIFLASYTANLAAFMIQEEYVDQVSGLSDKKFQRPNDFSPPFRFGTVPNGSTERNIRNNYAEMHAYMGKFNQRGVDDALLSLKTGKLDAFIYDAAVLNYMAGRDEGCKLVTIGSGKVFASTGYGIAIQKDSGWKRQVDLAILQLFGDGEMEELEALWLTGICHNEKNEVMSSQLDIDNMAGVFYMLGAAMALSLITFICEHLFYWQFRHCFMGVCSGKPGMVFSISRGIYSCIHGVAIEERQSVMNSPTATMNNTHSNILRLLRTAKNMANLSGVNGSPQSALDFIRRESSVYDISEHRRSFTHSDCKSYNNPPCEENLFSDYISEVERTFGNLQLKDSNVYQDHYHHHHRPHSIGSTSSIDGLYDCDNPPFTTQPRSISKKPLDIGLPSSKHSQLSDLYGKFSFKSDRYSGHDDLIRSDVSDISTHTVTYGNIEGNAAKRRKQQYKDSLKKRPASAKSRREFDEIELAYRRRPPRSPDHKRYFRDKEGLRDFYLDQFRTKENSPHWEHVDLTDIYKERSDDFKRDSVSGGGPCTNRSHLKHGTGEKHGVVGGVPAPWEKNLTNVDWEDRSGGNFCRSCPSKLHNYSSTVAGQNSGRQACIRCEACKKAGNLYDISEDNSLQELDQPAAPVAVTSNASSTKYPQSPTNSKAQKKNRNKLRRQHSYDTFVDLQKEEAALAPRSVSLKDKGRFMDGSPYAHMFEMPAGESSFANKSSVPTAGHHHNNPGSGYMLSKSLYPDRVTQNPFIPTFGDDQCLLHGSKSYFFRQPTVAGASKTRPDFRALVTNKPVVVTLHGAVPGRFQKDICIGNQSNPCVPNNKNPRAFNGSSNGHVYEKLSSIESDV
Experimental: Biological Assays Inhibition of Specific Binding to the Rat NR1/NR2B Receptor
Male Wistar rats (180 to 200 g) were killed by suffocation in a CO2 chamber for two minutes. Whole brains without cerebellum were removed and dissected on ice, placed into closed vials and stored at −70° C.
Membrane fractions were prepared and tested using standard techniques. At the time of the assay, 1 g of the brains was placed into 25 ml of 50 mM Tris/10 mM EDTA buffer, pH 7.1, (25 vol. per g of original tissue) and homogenized for 30 sec at 20000 rpm with an Ultraturrax T25 (Jahnke & Kunkel, IKA-Labortechnik, Staufen, Germany).
The supernatant was discarded and the pellet was homogenized on ice for 30 sec at 20000 rpm with an Ultraturrax and again centrifuged at 48000 g for 30 minutes at 4° C. The resultant pellet was resuspended in 25 ml of 50 mM Tris/10 mM EDTA buffer, homogenized for 30 sec with an Ultraturrax, aliquoted, frozen at −70° C. and stored until use.
After thawing on the day of the assay, a 5 ml membrane aliquot was centrifuged at 48000 g for 30 min at 4° C. The pellet was resuspended in 5 ml of 5 mM Tris/1 mM EDTA buffer, pH 7.4, homogenized for 30 sec at 20000 rpm with an Ultraturrax and centrifuged at 48000 g for 30 min at 4° C. This was repeated twice. The final pellet was homogenized in 5 ml of 5 mM Tris/1 mM EDTA buffer at 4° C. with an Ultraturrax and used for the Ifenprodil-binding assay as described in the following.
Nonspecific binding was estimated in the presence of […] CP101.606. The samples were incubated for 60 min. at 4° C.
The incubation was terminated by filtration of the membrane preparations using Filtermat B (Pharmacia, Uppsala Sweden) and a Micro Cell Harvester (Skatron, Lier, Norway). The Filtermat B had been presoaked with 1% polyethylene imine and carefully washed with 50 mM Tris/HCl-buffer pH 7.7 after the filtration to separate free and bound radioactivity.
The optimal amount of membrane preparation in the assay was determined and optimized for each membrane preparation separately before the test.
For pipetting of the incubation mixture the robot Biomek2000 (Fa. Beckman) was used.
For determination of IC50 values the Hill-plot, 2-parameter-model was used.

[2] = [3H]-Dofetilide binding, membranes of HEK cells with human ERG receptor, read-out: IC50

Compound | IC50 [1] | IC50 (hERG receptor) | IC50 (rat NR1/NR2B receptor) | IC50 (hERG receptor; [2]) | inhibition at 1 µM (rat NR1/NR2B receptor) | inhibition at 10 µM (rat NR1/NR2B receptor; read-out: % INH @ 10 μM)
Cn1cc(Cn2cc(-c3ccc(Cl)c(OC(F)F)c3)cn2)cn1 [Example 4, 4-[4-Chloro-3-(difluoromethoxy)phenyl]-1-[(1-methylpyrazol-4-yl)methyl]pyrazole] | 1.75 µM |  |  |  |  | 
FC(F)Oc1cc(-c2cnn(Cc3cc[nH]n3)c2)ccc1Cl [Example 6] | 0.23 µM |  |  |  |  | 
FC(F)Oc1cc(-c2cnn(Cc3cn[nH]c3)c2)ccc1Cl [Example 7, 4-[4-Chloro-3-(difluoromethoxy)phenyl]-1-(1H-pyrazol-4-ylmethyl)pyrazole] | 0.35 µM | 52.6 µM | 0.00823 µM |  |  | 
CCc1cc(Cn2cc(-c3ccc(Cl)c(OC(F)F)c3)cn2)n[nH]1 [Example 14, 3-[[4-[4-Chloro-3-(difluoromethoxy)phenyl]pyrazol-1-yl]methyl]-5-ethyl-1H-pyrazole] | > 10 µM |  | 0.0762 µM | 16.1 µM |  | 
Cc1[nH]ncc1Cn1cc(-c2ccc(Cl)c(OC(F)F)c2)cn1 [Example 16, 4-[4-Chloro-3-(difluoromethoxy)phenyl]-1-[(5-methyl-1H-pyrazol-4-yl)methyl]pyrazole] | 2.15 µM | 64.7 µM | 0.0411 µM |  |  | 
CCc1[nH]ncc1Cn1cc(-c2ccc(Cl)c(OC(F)F)c2)cn1 [Example 17, 4-[4-Chloro-3-(difluoromethoxy)phenyl]-1-[(5-ethyl-1H-pyrazol-4-yl)methyl]pyrazole] | 3.7 µM |  |  |  |  | 
CCc1[nH]ncc1Cn1cc(-c2ccc(F)c(OC(F)F)c2)cn1 [Example 20, 4-[3-(difluoromethoxy)-4-fluoro-phenyl]-1-[(5-ethyl-1H-pyrazol-4-yl)methyl]pyrazole Tartrate] | 5.97 µM |  |  |  |  | 
FC(F)c1cc(-c2cnn(Cc3cc[nH]n3)c2)ccc1Cl [Example 26, 4-[4-Chloro-3-(difluoromethyl)phenyl]-1-(1H-pyrazol-3-ylmethyl)pyrazole] | 0.89 µM |  |  |  |  | 
Cn1ccc(Cn2cc(-c3ccc(F)c(C(F)F)c3)cn2)n1 [Example 31, 3-[[4-[3-(difluoromethyl)-4-fluoro-phenyl]pyrazol-1-yl]methyl]-1-methyl-pyrazole Succinate] | 7.77 µM | 19.7 µM | 0.264 µM |  |  | 
Fc1ccc(-c2cnn(Cc3cc[nH]n3)c2)cc1C(F)F [Example 35, 4-[3-(Difluoromethyl)-4-fluoro-phenyl]-1-(1H-pyrazol-3-ylmethyl)pyrazole] | 0.69 µM | 22.6 µM | 0.0176 µM |  |  | 
Cc1cc(Cn2cc(-c3ccc(F)c(C(F)F)c3)cn2)[nH]n1 [Example 39, 4-[3-(Difluoromethyl)-4-fluoro-phenyl]-1-[(3-methyl-1H-pyrazol-5-yl)methyl]pyrazole] | 2.4 µM | 90.2 µM | 0.102 µM |  |  | 
CCc1cc(Cn2cc(-c3ccc(F)c(C(F)F)c3)cn2)n[nH]1 [Example 40, 3-[[4-[3-(Difluoromethyl)-4-fluoro-phenyl]pyrazol-1-yl]methyl]-5-ethyl-1H-pyrazole] | 3.3 µM | 23.3 µM | 0.047 µM |  |  | 
CCCc1cc(Cn2cc(-c3ccc(F)c(C(F)F)c3)cn2)n[nH]1 [Example 41, 3-[[4-[3-(Difluoromethyl)-4-fluoro-phenyl]pyrazol-1-yl]methyl]-5-propyl-1H-pyrazole] | 59.7 µM | 16 µM | 0.114 µM |  |  | 
Cc1[nH]ncc1Cn1cc(-c2ccc(F)c(C(F)F)c2)cn1 [Example 42, 4-[3-(Difluoromethyl)-4-fluoro-phenyl]-1-[(5-methyl-1H-pyrazol-4-yl)methyl]pyrazole] | 2.3 µM | 71.6 µM | 0.202 µM |  |  | 
CCc1[nH]ncc1Cn1cc(-c2ccc(F)c(C(F)F)c2)cn1 [Example 43, 4-[3-(Difluoromethyl)-4-fluoro-phenyl]-1-[(5-ethyl-1H-pyrazol-4-yl)methyl]pyrazole] | 2.66 µM | 57.4 µM | 0.134 µM |  |  | 
CC(F)(F)c1cc(-c2cnn(Cc3cc[nH]n3)c2)ccc1F [Example 44, 4-[3-(1,1-difluoroethyl)-4-fluoro-phenyl]-1-(1H-pyrazol-3-ylmethyl)pyrazole Succinate] | 0.53 µM | > 100 µM | 0.0171 µM |  |  | 
Cc1cc(Cn2cc(-c3ccc(Cl)cc3)cn2)n(C)n1 [Example 74, 5-[[4-(4-Chlorophenyl)pyrazol-1-yl]methyl]-1,3-dimethyl-pyrazole] | 51 µM | > 100 µM | 6.06 µM |  |  | 
Cn1nccc1-n1cc(-c2ccc(F)c(Cl)c2)cn1 [Example 101, 4-(3-chloro-4-fluorophenyl)-2′-methyl-2′H-1,3′-bipyrazole] |  | 118 µM | 5.6 µM |  |  | 
Clc1ccc(-c2cnn(Cc3cn4ccccc4n3)c2)cc1 [Example 102, 2-((4-(4-chlorophenyl)-1H-pyrazol-1-yl)methyl)imidazo[1,2-a]pyridine] |  | 10.2 µM |  |  | 23.3% | 
Fc1ccc(-c2cnn(Cc3cc(Cn4ccc(-c5ccc(F)c(C(F)F)c5)n4)n[nH]3)c2)cc1C(F)F [Example 103, 3-(3-(difluoromethyl)-4-fluorophenyl)-1-((5-((4-(3-(difluoromethyl)-4-fluorophenyl)-1H-pyrazol-1-yl)methyl)-1H-pyrazol-3-yl)methyl)-1H-pyrazole] |  | > 10 µM |  |  | 15.5% | 
Cn1ccc(Cn2cc(-c3ccccn3)cn2)n1 [Example 104, 2-(1-((1-methyl-1H-pyrazol-3-yl)methyl)-1H-pyrazol-4-yl)pyridine Succinate] |  |  |  | > 100 µM | 20.9% | -0.6%
